We go through 7 compounds from PubChem BioAssay AID248 (DTP/NCI, 2004).

The structures appear in SMILES notation. “And” between values parts separate entries of the source, which are not always exact repeats. Equal entries are not always repeated. Toxic doses and inconclusive results are not listed.

The assay deals with L1210 leukemia ip in BDF1 mice, survival T/C. Description: NCI In Vivo Anticancer Drug Screen. Data for tumor model L1210 Leukemia (intraperitoneal) in B6D2F1 (BDF1) mice. Particulars: endpoint: mean survival time, higher = longer survival. In short, it runs like this: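 Transplanted-tumor mice were given test agent; controls received vehicle only. Survival readings from the two groups were divided (treated over control).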

[1] abbreviates: dose: 100.0 mg/kg/injection, schedule: Q04DX003 (ip), vehicle: saline with Tween-80.
[2] abbreviates: dose: 200.0 mg/kg/injection, schedule: Q04DX003 (ip), vehicle: saline with Tween-80.
Where [3] appears, read: dose: 400.0 mg/kg/injection, schedule: Q04DX003 (ip), vehicle: saline with Tween-80.
Setting [4] is: dose: 100.0 mg/kg/injection, schedule: Q01DX001 (ip), vehicle: saline.

For the compound `O/N=C/c1ccc2ccccc2n1`, the T/C is 105 % of control (dose: 18.75 mg/kg/injection, schedule: Q01DX009 (ip), vehicle: Klucel (hydroxypropylcellulose) (HPC)); 97 % of control (dose: 18.75 mg/kg/injection, schedule: Q04DX003 (ip), vehicle: Klucel (hydroxypropylcellulose) (HPC)); 100 % of control (dose: 37.5 mg/kg/injection, schedule: Q01DX009 (ip), vehicle: Klucel (hydroxypropylcellulose) (HPC)); 103 % of control (dose: 37.5 mg/kg/injection, schedule: Q04DX003 (ip), vehicle: Klucel (hydroxypropylcellulose) (HPC)); 113 % of control (dose: 75.0 mg/kg/injection, schedule: Q01DX009 (ip), vehicle: Klucel (hydroxypropylcellulose) (HPC)); 97 % of control and 103 % of control (dose: 75.0 mg/kg/injection, schedule: Q04DX003 (ip), vehicle: Klucel (hydroxypropylcellulose) (HPC)).

As to `O=C(C=C(C(F)(F)F)C(F)(F)F)c1ccc(Br)cc1`, the T/C by setting is: (dose: 25.0 mg/kg/injection, schedule: Q04DX003 (ip), vehicle: other) 88 % of control; (dose: 50.0 mg/kg/injection, schedule: Q04DX003 (ip), vehicle: other) 94 % of control.

Turning to `O=C1N=C2C=CC=CN2C(=O)C1Cc1ccccc1` (stereo unspecified), the T/C (dose: 100.0 mg/kg/injection, schedule: Q01DX009 (ip), vehicle: saline with Tween-80) was 90 % of control; the T/C under setting [1] was 98 % of control; the T/C (dose: 200.0 mg/kg/injection, schedule: Q01DX009 (ip), vehicle: saline with Tween-80) is 89 % of control; the T/C under setting [2] is 94 % of control; the T/C (dose: 400.0 mg/kg/injection, schedule: Q01DX009 (ip), vehicle: saline with Tween-80) was 96 % of control; the T/C under setting [3] was 99 % of control.

For `CN(C)CCNc1ccc([N+](=O)[O-])c2sc3ccccc3c(=O)c12`, the T/C reads like this: (dose: 5.3 mg/kg/injection, schedule: Q01DX Z (ip), vehicle: methylcellulose (MC)) 94 % of control and 98 % of control; (dose: 8.0 mg/kg/injection, schedule: Q01DX Z (ip), vehicle: carboxymethylcellulose (CMC)) 102 % of control; (dose: 8.0 mg/kg/injection, schedule: Q01DX Z (ip), vehicle: methylcellulose (MC)) 98 % of control and 106 % of control; (dose: 12.0 mg/kg/injection, schedule: Q01DX Z (ip), vehicle: carboxymethylcellulose (CMC)) 118 % of control; (dose: 26.0 mg/kg/injection, schedule: Q01DX Z (ip), vehicle: carboxymethylcellulose (CMC)) 152 % of control; (dose: 27.0 mg/kg/injection, schedule: Q01DX Z (ip), vehicle: carboxymethylcellulose (CMC)) 156 % of control. Also, the T/C (dose: 27.0 mg/kg/injection, schedule: Q01DX Z (ip), vehicle: methylcellulose (MC)) was 98 % of control and 156 % of control and 216 % of control; the T/C (dose: 40.0 mg/kg/injection, schedule: Q01DX Z (ip), vehicle: carboxymethylcellulose (CMC)) was 172 % of control; the T/C (dose: 40.0 mg/kg/injection, schedule: Q01DX Z (ip), vehicle: methylcellulose (MC)) was 111 % of control.

Take `CC(C)NC(=O)c1cc(NC(=O)c2ccc(C(=O)Nc3cc(C(=O)NC(C)C)cc(C4=NCCN4)c3)cc2)cc(C2=NCCN2)c1`: the T/C is, setting by setting: (dose: 2.5 mg/kg/injection, schedule: Q01DX015 (ip), vehicle: water) 89 % of control; (dose: 5.0 mg/kg/injection, schedule: Q01DX015 (ip), vehicle: water) 97 % of control; (dose: 10.0 mg/kg/injection, schedule: Q01DX015 (ip), vehicle: water) 92 % of control; (dose: 18.75 mg/kg/injection, schedule: Q01DX015 (ip), vehicle: water) 101 % of control; (dose: 20.0 mg/kg/injection, schedule: Q01DX015 (ip), vehicle: water) 95 % of control; (dose: 37.5 mg/kg/injection, schedule: Q01DX015 (ip), vehicle: water) 96 % of control.

Take `CC(=O)Nc1cc2c(cc1[N+](=O)[O-])-c1ccccc1C2O` (stereo unspecified): the T/C reads like this: (dose: 25.0 mg/kg/injection, schedule: Q04DX003 (ip), vehicle: saline) 94 % of control; (dose: 50.0 mg/kg/injection, schedule: Q04DX003 (ip), vehicle: saline) 100 % of control; under setting [4], 87 % of control; (dose: 100.0 mg/kg/injection, schedule: Q01DX009 (ip), vehicle: saline) 102 % of control; under setting [1], 102 % of control; (dose: 100.0 mg/kg/injection, schedule: Q04DX003 (ip), vehicle: saline) 96 % of control. Further, the T/C is 92 % of control (dose: 150.0 mg/kg/injection, schedule: Q01DX009 (ip), vehicle: saline); 101 % of control under setting [2]; 105 % of control (dose: 225.0 mg/kg/injection, schedule: Q01DX009 (ip), vehicle: saline); 104 % of control under setting [3].

Take `O=C1c2ccccc2C(O)N1c1ccccc1` (stereo unspecified): the T/C is 86 % of control under setting [4] and 104 % of control (dose: 400.0 mg/kg/injection, schedule: Q01DX001 (ip), vehicle: saline).
